This is an account of results in US20230048888A1, “USE OF TRIAZOLOTRIAZINE DERIVATIVE IN TREATMENT OF DISEASES” (ZHEJIANG VIMGREEN PHARMACEUTICALS, LTD., priority 2019, published 2023).

Like-named read-outs stand apart in the source and are kept apart here.

Data set [1] in a line: Pharmacokinetics of test compounds in SD rats (15.2; IV and PO, mixed administration). The conditions noted are these: for half-life / AUC(0-t) / Cmax: male, Sprague-Dawley, rat, plasma; for half-life: read-out: T½ (converted). Format: in vivo. Here is the method:
Administration dose: the compounds in this group were all administered in a mixed way, with 6 compounds in each group for mixed PO administration.
Blood was collected based on the blood collection points in the test protocol. 50 μL of plasma sample was added with acetonitrile (containing 5 ng/mL Verapamil) being 3 folds of the volume thereof; the resulting mixture was vortexed for 30 s, and then centrifuged for 15 min at 15,000 rpm at 4° C.; and 10μ L of supernatant was taken for LC-MS/MS analysis.
For each compound, 3 male SD rats weighing 200-220 g were fasted for one night before dosage, but had access to water.
Orally intragastric administration: before intragastric administration and at 0.083 h, 0.25 h, 0.5 h, 1 h, 2 h, 4 h, 8 h and 24 h after administration (for Compounds 40, 27, 40 and 47), or at 0.25 h, 0.5 h, 1 h, 4 h, 6 h and 8 h after administration (for Compounds 44 and 48), orbital blood was collected and put in a test tube that was treated with heparin sodium, and after centrifugation, the supernatant plasma was collected for LC-MS/MS analysis.
The plasma samples were processed according to the method for “sample treatment” and then analyzed by LC-MS/MS, accompanied with the standard curve and quality control samples. At a time point when the upper limit of quantification was exceeded, the samples were diluted 10 or 100 folds for analysis. All measured data were collected and processed by Analyst 1.6.3 software, and the data were calculated and processed with Microsoft Excel. With DAS 3.2.8 software, the pharmacokinetic parameters were calculated by the statistical moment method. The pharmacokinetic parameters mainly include Tmax, t1/2, Cmax, AUC(0-t), etc.

Data set [2] concerns the target T1, human ADORA3 (Homo sapiens, UniProt P0DMS8).
T1 construct: host or cells: CHO
T1 sequence (P0DMS8 1-318): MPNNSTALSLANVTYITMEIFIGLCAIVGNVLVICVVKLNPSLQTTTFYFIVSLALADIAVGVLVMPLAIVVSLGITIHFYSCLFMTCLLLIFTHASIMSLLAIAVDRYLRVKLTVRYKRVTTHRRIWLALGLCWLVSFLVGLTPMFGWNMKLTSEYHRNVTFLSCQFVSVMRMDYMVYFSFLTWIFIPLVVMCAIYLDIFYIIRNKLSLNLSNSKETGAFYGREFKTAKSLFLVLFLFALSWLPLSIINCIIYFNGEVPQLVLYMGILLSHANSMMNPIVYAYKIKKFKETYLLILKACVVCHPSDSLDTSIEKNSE
In words: Calcium flow test (FLIPR), ADORA3 stably transfected CHO. Format: cell-based. The conditions noted are these: Table 9. Here is the method:
In this experiment, stably transfected cell lines over-expressing adenosine receptor coupled to human Gq were used, and the antagonistic function of Compound 22 was evaluated by testing the changes in intracellular calcium ion concentration. The binding of the A2AR agonist to A2AR could activate a downstream pathway to increase the intracellular calcium ion concentration. The antagonist would competitively occupy the binding site where the agonist binds to A2AR, thereby interrupting the intracellular signal transduction and leading to a change in the intracellular calcium ion concentration. By detecting the strength of the intracellular calcium ion signal, the antagonistic activities of the compound on human ADORA1, ADORA2A, ADORA2B and ADORA3 adenosine receptors were determined. […]
7) The FLIPR instrument software was operated; following a set program, 10 μL of experimental buffer salt solution was added to the cell plate; and fluorescence signals were read. Then, 10 μL of the reference compound of agonist at a predetermined concentration was added to the cell plate, and the fluorescence signals were read. After reading, data was exported by means of “Max-Min” and “Read 91 to Maximum allowed” in the software, the EC80 of each cell line was calculated, and an agonist with a concentration of 6×EC80 was prepared.
9) The FLIPR instrument software was operated; following a set program, 10 μL of the test compound and 10 μL of the reference compound were added at a predetermined concentration to the cell plate; and the fluorescence signals were read. Then, 10 μL of the reference compound of agonist at a concentration of 6×EC80 was added to the cell plate, and the fluorescence signal were read. For the antagonist detection of the compound, data was exported by means of “Max-Min” and “Read 1 to 90” in the software. […]

In data set [1] (SD rats, PO, 10 mg/kg), `Cn1nnc(-c2ccc(CCNc3nc(N)n4nc(-c5ccco5)nc4n3)cc2)n1` [Compound 40, N5-(4-(2-methyl-2H-tetrazol-5-yl)phenethyl)-2-(furan-2-yl)-[1,2,4]triazolo[1,5-a][1,3,5]triazine-5,7-diamine] registered a Cl_F_pred of 22.9228 mL/min/kg, an F of 46.97%, an AUC(0-t) of 6600 ng·h/mL and a Cmax of 2440 ng/mL. Further, the half-life in data set [1] (SD rats, PO, 10 mg/kg) is 2.44 h. Further, the half-life in data set [1] (po, […]) was 0.23 h. In data set [1] (SD rats, PO, 2 mg/kg, mixed administration (6 compounds per group)), the AUC(0-t) stood at 2360 ng·h/mL. Moreover, the IC50 in data set [2] was 6.3 ± 2.89 µM.

Turning to `Nc1nc(NCCc2ccc(NC3COC3)cc2)nc2nc(-c3ccco3)nn12` [Compound 22, 2-(furan-2-yl)-N5-(4-(oxetan-3-ylamino)phenethyl)-[1,2,4]triazolo[1,5-a][1,3,5]triazine-5,7-diamine], the IC50 in data set [2] was found to be 0.931 ± 0.0541 µM.

As for `COCCNc1ccc(CCNc2nc(N)n3nc(-c4ccco4)nc3n2)cc1` [Compound 27, 2-(furan-2-yl)-N5-(4-((2-methoxyethyl)amino)phenethyl)-[1,2,4]triazolo[1,5-a][1,3,5]triazine-5,7-diamine], in data set [1] (SD rats, PO, 10 mg/kg), the Cl_F_pred came to 139.069 mL/min/kg, the F is on record as 127.5%, the AUC(0-t) came to 1070 ng·h/mL and the concentration peaked (Cmax) at 325 ng/mL. In addition, the half-life in data set [1] (SD rats, PO, 10 mg/kg) was 2.42 h.
